Columns and labels:
[1] = system: patients with downbeat nystagmus; test: Case studies, downbeat nystagmus; format: in vivo, human
[2] = system: patients with Tay-Sachs disease; test: Case studies, Tay-Sachs disease (SARA, SCAFI, MoCA); format: in vivo, human
Description: (§1) For example, to evaluate overall neurological status, mDRS, a four-domain scale (ambulation, manipulation, language and swallowing), may be applied. Cerebellar function may be evaluated using SARA, an eight-item clinical rating scale (gait, stance, sitting, speech, fine motor function and taxis; range 0-40, where 0 is the best neurological status and 40 the worst), and SCAFI, comprising the 8-m-Walking-Time (8MW; performed by having patients walking twice as quickly as possible from one line to another excluding turning), 9-Hole-Peg-Test (9HPT) and the number of “PATA” repetitions over 10 s. Subjective impairment and quality of life may be evaluated using the EQ-5D-5L questionnaire and VAS. To assess ocular motor function, 3-dimensional videooculography (EyeSeeCam) may be used to measure the peak velocity of saccades, gain of smooth pursuit, peak slow phase velocity of gaze-evoked nystagmus (gaze-holding function), peak slow phase velocity of optokinetic nystagmus, and gain of horizontal vestibulo-ocular reflex. To evaluate the cognitive state, WAIS-R or WISC-IV, and MoCA, assessing different cognitive domains, including attention and concentration, executive functions, memory, language, visuoconstructional skills, conceptual thinking, calculations, and orientation with a maximum of 30 points and a cut-off score of 26, may be used. The skilled person will know how to perform these and other such tests.
The day following this examination, the patient was started on therapy with acetyl-leucine, at a dose of 3 g per day for the first week, followed by a dose of 5 g per day for the second week onwards.
The day of the examination, the patient was started on therapy with acetyl-leucine at a dose of 3 g per day for the first week, followed by a dose of 5 g per day for the second week onwards.
The patient was started on therapy with acetyl-leucine at a dose of 1.5 g per day for the first week, followed by a dose of 3 g per day for the second week onwards.

[3] = system: patients with multiple system atrophy Parkinson type (MSA-P); test: Case studies, multiple system atrophy Parkinson type; format: in vivo, human
[4] = system: Tay-Sachs disease patient fibroblasts; test: Glycosphingolipid (GSL) levels via HPLC; format: cell-based, human; details: 1 mM for 6 days, p<0.05
[5] = system: patients with cerebellar ataxia; details: cited from earlier work
[6] = system: patients with ataxia telangiectasia; test: Case studies, ataxia telangiectasia (SARA, SCAFI, video-oculography); format: in vivo, human
Description: as §1
After one month of treatment, the patient was re-evaluated. […] Examination indicated a Scale for Assessment and Rating of Ataxia (SARA) score of 15.5/40. Results from the patient's Spinocerebellar Ataxia Functional Index (SCAFI) analysis were: • Mean 8-meters Walking Test (8MW): 18.5 s • MW 9-Hole Pegboard Test Dominant (9HPTD) (right): 77.9 s • MW 9-Hole Pegboard Test Non-Dominant (9HPTND): 101.3 s • MW PATA Word Test: 13 • Visual analog scale (as evaluated by the patient): 85
After one month of treatment, the patient was re-evaluated. […] Examination indicated a Scale for Assessment and Rating of Ataxia (SARA) score of 23.5/40.
After slightly over 7 months of treatment, the patient was re-evaluated. […] Examination indicated a Scale for Assessment and Rating of Ataxia (SARA) score of 21.5/40.
After slightly over 1 month of treatment, the patient was re-evaluated. […] The patient also reported that drinking was easier and no longer needed a straw. […] Examination indicated a Scale for Assessment and Rating of Ataxia (SARA) score of 18.5/40.
After about 1 month of treatment, the patient was re-evaluated. […] On medication, they were able to walk with only holding the caregiver's hand.
The patient was evaluated after one month and six months of treatment, respectively. […] The patient, however, was suffering from anxiety, which would be expected to negatively influence the response.

[7] = system: person with postural imbalance and gait disorder; test: Case study Example 24; format: in vivo, human
Procedure: The patient was treated with Tanganil® 500 mg in 3 separate doses throughout the day—1 g upon waking, 1 g prior to lunch and 1 g prior to the evening meal for one week, followed by 2 g upon waking, 1.5 g prior to lunch and 1.5 g prior to the evening meal.

[8] = system: Sandhoff disease model, Hexb−/− mouse; test: Lifespan of Sandhoff mouse; format: in vivo; details: 0.1 g/kg from 3 weeks of age, p<0.05 vs untreated
Procedure: This study made use of a mouse model of Sandhoff disease, the Hexb^−/− mouse, as descrbed in Jeyakumar et al. (Jeyakumar, M. et al. (1999) Proc. Natl. Acad. Sci. USA 96: 6388-6393).
In FIG. 7A, acetyl-leucine-treated mice were treated with 0.1 g/kg acetyl-leucine from 3 weeks of age. The asterisks (*) indicates a p-value of <0.05 vs untreated Sandhoff mice. Data is average of n=6 mice per group. Without treatment, the median survival time of Sandhoff mice was 112 days. Treatment with acetyl-leucine (0.1 g/kg body weight since 3 weeks of age) increased the median lifespan to 120 days.

[9] = DBN Patient 1, approximately 14 weeks
[10] = MSA-P Patient 2, after one month of treatment
[11] = A-T Patient 3, after slightly over 7 months
[12] = A-T Patient 4, after slightly over 1 month
[13] = A-T Patient 5, after about 1 month
[14] = A-T Patient 5, after almost 7 months

For `CC(=O)NC(CC(C)C)C(=O)O` (racemic) [acetyl-DL-leucine], the “Effect of temporary suspension of the medication” value ([1]; DBN Patient 1) was “considerable deterioration”, the Side-effects ([1]; DBN Patient 1, 5 gram per day) was “no side-effects resulted” and the “Benefit (patient report)” value ([1]; DBN Patient 1, after 10 days, 3 g then 5 gram per day) was “significant benefit”. For the same compound, the “Nystagmus (clinical examination)” value [1, 9] was “reduction of the nystagmus”, the “Postural sway (posturography)” value [1, 9] was “reduction of postural sway” and the “Oscillopsia / reading and writing” value ([1]; DBN Patient 1, approximately 14 weeks after starting) was “reduced oscillopsia”. For the same compound, the Gait ([1]; DBN Patient 2, 3 g/day then 5 g/day) was “improvement of gait”, the “Downbeat nystagmus (video-oculography)” value ([1]; DBN Patient 2, on treatment) was “improved” and the Overall symptoms ([2]; Tay-Sachs Patient 1) was “improvement in symptoms”. For the same compound, the Clinical re-examination ([2]; Tay-Sachs Patient 1, after four months) was “stable condition with slightly improved cognitive function but had deterioration of stance, gait and fine motor function”, the Clinical re-examination ([2]; Tay-Sachs Patient 1, after one month, 3 g then 5 g per day) was “improved fine motor skills and reduced hand tremor” and the Clinical re-examination ([2]; Tay-Sachs Patient 2, after one month, 3 g then 5 g per day) was “increased enunciation, improved postural stability, and enhanced cognitive function”. For the same compound, the Clinical re-examination ([2]; Tay-Sachs Patient 3, after one month, 1.5 g then 3 g per day) was “increased fine motor skills”, the “Symptoms after stopping medication” value ([3]; MSA-P Patient 1, 6 weeks later) was “did not report deterioration of symptoms” and the “Gait, falls, hypokinetic rigid-syndrome (patient report)” value ([3]; MSA-P Patient 1, after 3 weeks) was “no significant improvement of gait, reduction of falls or improved hypokinetic rigid-syndrome”. The “Balance (clinical examination)” value [3, 10] was “improved balancing on an imaginary tightrope”, the “Dizziness (patient report)” value [3, 10] was “subjective improvement of dizziness” and the “Symptomatology (patient report)” value ([3]; MSA-P Patient 2, after one month without medication) was “stable symptomatology”. The “Symptomatology (patient report)” value ([3]; MSA-P Patient 2, after two months without medication) was “worsening of general symptomatology”, the GSL storage [4] was “decrease was statistically significant” and the “benefit in degenerative cerebellar ataxia” value ([5]; case series (Pelz 2015)) was “did not find benefit”. The “symptoms of cerebellar ataxia” value ([5]; case series (Strupp 2013)) was “symptomatic improvement of cerebellar ataxia”, the temporal gait variability ([5]; quantitative gait analysis (Schniepp 2015)) was “improved temporal gait variability” and the “Video-oculography (summary)” value ([6]; A-T Patient 1, after one month) was “significant improvement of fixation stability and decrease of intensity of downbeat-nystagmus”. The Caregiver report ([6]; A-T Patient 1, after one month, 5 g/day) was “improvement of speech and gait”, the “9-Hole Pegboard Test Dominant (9HPTD)” value ([6]; A-T Patient 2, after one month) was 300 s and the “Mean 8-meters Walking Test (8MW)” value ([6]; A-T Patient 2, after one month) was “not able to perform without support”. The “Video-oculography (summary)” value ([6]; A-T Patient 2, after one month) was “improvement of fixation stability and significant improvement of downbeat-nystagmus intensity”, the Caregiver report ([6]; A-T Patient 2, after one month, 5 g/day) was “improvement of fine motor function, hand tremor, and speech” and the “Mean 8-meters Walking Test (8MW)” value [6, 11] was “not able to perform”. The “Video-oculography (summary)” value [6, 11] was “significant improvement of fixation stability and decrease of intensity of gaze-holding nystagmus at all positions”, the “Caregiver and patient report” value ([6]; A-T Patient 3, after slightly over 7 months, 5 g/day) was “general improvement of well-being” and the “Mean 8-meters Walking Test (8MW)” value [6, 12] was “not able to perform”. For the same compound, the “Video-oculography (summary)” value [6, 12] was “general improvement of fixation stability and decrease of intensity of spontaneous and gaze-holding nystagmus at all positions”, the “Patient and family report” value ([6]; A-T Patient 4, after slightly over 1 month, 5 g/day) was “improvement in handwriting” and the Body weight gained [6, 13] was 1.5 kg. For the same compound, the “Mean 8-meters Walking Test (8MW)” value [6, 13] was “not able to walk without support”, the “Gait (reported by parent)” value ([6]; A-T Patient 5, after about 1 month, 5 g/day) was “significant improvement of stability of the gait” and the “Further body weight gained” value [6, 14] was 3 kg. For the same compound, the “Gait (reported by parent)” value [6, 14] was “significantly more stable gait”, the Clinical re-evaluation ([6]; A-T Patient 5, after slightly over a year) was “improved social interaction, activity, and agility” and the Adverse observation ([6]; A-T Patient 5, after slightly over a year, suspected infantile migraine) was “repeatedly occurring frontal localized pain with vomiting in the morning”. For the same compound, the Clinical evaluation ([6]; A-T Patient 6, after one month, 1.5 g/day then 3 g/day) was “increased fine motor skills with reduced hand tremor”, the Clinical evaluation ([6]; A-T Patient 6, after six months) was “stable general conditions, stable gait and stance, and improved handwriting” and the Tolerability ([7]; 3 g/day one week then 5 g/day) was “well tolerated”. For the same compound, the “Dizziness, imbalance, gait (feedback by spouse)” value ([7]; 22 days after beginning treatment) was “significant reduction of dizziness and imbalance, and significant improvement of gait” and the “Lifespan of the Sandhoff mouse” value [8] was “statistically significant increase in the lifespan”.

— patent US12458614B2, “Therapeutic agents for improved mobility and cognitive function and for treating neurodegenerative diseases and lysosomal storage disorders” (priority 2017, dated 2025)
